Data reported in patent publication US12012410B2, “Substituted pyrazolo[1,5-a]pyrazines for spinal muscular atrophy” (REBORNA BIOSCIENCES, INC., priority 2018, dated 2024).

Tested on: FL-SMN mRNA (SMN transcript containing exons 7 and 8)
Assay: Live-cell assay to measure changes in FL-SMN mRNA levels (qPCR) after exposure to the compounds
Type: cell-based, human
Settings: fibroblasts derived from patients SMA (GM03813); 24 hours incubation
How it was run: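 SMA patient fibroblasts (GM03813) in DMEM/10% FBS were treated with compound (0.1% DMSO final) for 24 h. FL-SMN and Δ7 mRNA were measured by RT-qPCR against oligo DNA standard curves and normalised to GAPDH. Values are % of the DMSO control, binned by asterisk from ≥100% to ≥180%.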

Cc1cn2nc(-c3nc4ccc(N5CCN6CCC[C@@H]6C5)cc4c(=O)[nH]3)cc2c(C)n1 [Example 126, (R)-2-(4,6-dimethylpyrazolo[1,5-a]pyrazin-2-yl)-6-(hexahydropyrrolo[1,2-a]pyrazin-2(1H)-yl)quinazolin-4(3H)-one]
Percentage of increase (FL-SMN mRNA standardized against GAPDH, DMSO control set as 100%): **** (equal to or higher than 180%)

Cc1cn2cc(-c3ccc4nc(C5CCN(C)CC5)[nH]c(=O)c4c3)cc(Cl)c2n1 [Example 17, 6-(8-Chloro-2-methylimidazo[1,2-α]pyridin-6-yl)-2-(1-methylpiperidin-4-yl)quinazolin-4(3H)-one]
Percentage of increase (FL-SMN mRNA standardized against GAPDH, DMSO control set as 100%): *** (equal to or higher than 150% but lower than 180%)

Cc1cn2cc(-c3cc4c(=O)[nH]c(C5CCN(C6CC6)CC5)nc4cn3)cc(F)c2n1 [Example 114, 2-(1-cyclopropylpiperidin-4-yl)-6-(8-fluoro-2-methylimidazo[1,2-a]pyridin-6-yl)pyrido[3,4-d]pyrimidin-4(3H)-one]
Percentage of increase (FL-SMN mRNA standardized against GAPDH, DMSO control set as 100%): **** (equal to or higher than 180%)

Cc1cn2nc(-c3nc4c(F)cc(C5CCN(C)CC5)cc4c(=O)[nH]3)cc2c(C)n1 [Example 3, 2-(4,6-Dimethylpyrazolo[1,5-α]pyrazin-2-yl)-8-fluoro-6-(1-methylpiperidin-4-yl)quinazolin-4(3H)-one]
Percentage of increase (FL-SMN mRNA standardized against GAPDH, DMSO control set as 100%): **** (equal to or higher than 180%)

CN1CCN(c2ccc3nc(C4=NOC5(CCN(C)CC5)C4)[nH]c(=O)c3c2)CC1 [Example 42, 2-(8-methyl-1-oxa-2,8-diazaspiro[4.5]dec-2-en-3-yl)-6-(4-methylpiperazin-1-yl)quinazolin-4(3H)-one]
Percentage of increase (FL-SMN mRNA standardized against GAPDH, DMSO control set as 100%): * (equal to or higher than 100% but lower than 120%)

CCN1CCN(c2ccc3nc(-c4cc5c(C)nc(C)cn5n4)[nH]c(=O)c3c2)[C@H](C)C1 [Example 131, (R)-2-(4,6-dimethylpyrazolo[1,5-a]pyrazin-2-yl)-6-(4-ethyl-2-methylpiperazin-1-yl)quinazolin-4(3H)-one]
Percentage of increase (FL-SMN mRNA standardized against GAPDH, DMSO control set as 100%): *** (equal to or higher than 150% but lower than 180%)

CN1CCC(c2nc3ccc(-c4ccc(-c5cnn(C)c5)cc4)cc3c(=O)[nH]2)CC1 [Example 77, 2-(1-methylpiperidin-4-yl)-6-[4-(1-methyl-1H-pyrazol-4-yl)phenyl]quinazolin-4(3H)-one]
Percentage of increase (FL-SMN mRNA standardized against GAPDH, DMSO control set as 100%): * (equal to or higher than 100% but lower than 120%)

CN1CCC(c2ccc3nc(C4=NOC5(CCN(C)CC5)C4)[nH]c(=O)c3c2)CC1 [Example 43, 2-(8-methyl-1-oxa-2,8-diazaspiro[4.5]dec-2-en-3-yl)-6-(1-methylpiperidin-4-yl)quinazolin-4(3H)-one]
Percentage of increase (FL-SMN mRNA standardized against GAPDH, DMSO control set as 100%): * (equal to or higher than 100% but lower than 120%)

Cc1cn2cc(-c3cc(C)c4nc(C5CCN(C)CC5)[nH]c(=O)c4c3)ccc2n1 [Example 19, 8-Methyl-6-(2-methylimidazo[1,2-α]pyridin-6-yl)-2-(1-methylpiperidin-4-yl)quinazolin-4(3H)-one]
Percentage of increase (FL-SMN mRNA standardized against GAPDH, DMSO control set as 100%): **** (equal to or higher than 180%)

Cc1nc2c(F)cc(-c3cc4c(=O)[nH]c(C5CCN(C6CC6)CC5)nc4cn3)cc2o1 [Example 115, 2-(1-cyclopropylpiperidin-4-yl)-6-(4-fluoro-2-methyl-1,3-benzoxazol-6-yl)pyrido[3,4-d]pyrimidin-4(3H)-one]
Percentage of increase (FL-SMN mRNA standardized against GAPDH, DMSO control set as 100%): **** (equal to or higher than 180%)

Cc1cn2cc(-c3ccc4nc(C5CCN(C)CC5)n(C)c(=O)c4c3)ccc2n1 [Example 69, 3-methyl-6-(2-methylimidazo[1,2-a]pyridin-6-yl)-2-(1-methylpiperidin-4-yl)quinazolin-4(3H)-one]
Percentage of increase (FL-SMN mRNA standardized against GAPDH, DMSO control set as 100%): ** (equal to or higher than 120% but lower than 150%)

Cc1cn2cc(-c3ccc4c(=O)n(C5CCN(C6CC6)CC5)cnc4c3)cc(F)c2n1 [Example 39, 3-(1-cyclopropylpiperidin-4-yl)-7-(8-fluoro-2-methylimidazo[1,2-a]pyridin-6-yl)quinazolin-4(3H)-one]
Percentage of increase (FL-SMN mRNA standardized against GAPDH, DMSO control set as 100%): *** (equal to or higher than 150% but lower than 180%)

CN1CCC(c2nc3ccc(-c4ccc5nc(C(F)(F)F)cn5c4)cc3c(=O)[nH]2)CC1 [Example 66, 2-(1-methylpiperidin-4-yl)-6-[2-(trifluoromethyl)imidazo [1,2-a]pyridin-6-yl]quinazolin-4(3H)-one]
Percentage of increase (FL-SMN mRNA standardized against GAPDH, DMSO control set as 100%): * (equal to or higher than 100% but lower than 120%)

Cc1nc2c(F)cc(-c3ccc4nc(C5CCN(C(C)C)CC5)[nH]c(=O)c4c3)cc2o1 [Example 38, 6-(4-Fluoro-2-methyl-1,3-benzoxazol-6-yl)-2-(1-isopropylpiperidin-4-yl)quinazolin-4(3H)-one]
Percentage of increase (FL-SMN mRNA standardized against GAPDH, DMSO control set as 100%): **** (equal to or higher than 180%)

Cc1cn2cc(-c3ccc4nc(C5(F)CCN(CC(F)F)CC5)[nH]c(=O)c4c3)cc(F)c2n1 [Example 93, 2-[1-(2,2-difluoroethyl)-4-fluoropiperidin-4-yl]-6-(8-fluoro-2-methylimidazo[1,2-a]pyridin-6-yl)quinazolin-4(3H)-one]
Percentage of increase (FL-SMN mRNA standardized against GAPDH, DMSO control set as 100%): *** (equal to or higher than 150% but lower than 180%)

Cc1cn2cc(-c3nc4ccc(N5CCN(C)CC5)cc4c(=O)[nH]3)cc(C)c2n1 [Example 55, 2-(2,8-dimethylimidazo[1,2-a]pyridin-6-yl)-6-(4-methylpiperazin-1-yl)quinazolin-4(3H)-one]
Percentage of increase (FL-SMN mRNA standardized against GAPDH, DMSO control set as 100%): ** (equal to or higher than 120% but lower than 150%)

CCN1CCC(F)(c2nc3c(C)cc(-c4cc(F)c5nc(C)cn5c4)cc3c(=O)[nH]2)CC1 [Example 90, 2-(1-ethyl-4-fluoropiperidin-4-yl)-6-(8-fluoro-2-methylimidazo[1,2-a]pyridin-6-yl)-8-methylquinazolin-4(3H4)-one]
Percentage of increase (FL-SMN mRNA standardized against GAPDH, DMSO control set as 100%): **** (equal to or higher than 180%)

COc1cc2nc(-c3cc4c(C)nc(C)cn4n3)[nH]c(=O)c2cc1C1CCN(C)CC1 [Example 51, 2-(4,6-dimethylpyrazolo[1,5-a]pyrazin-2-yl)-7-methoxy-6-(1-methylpiperidin-4-yl)quinazolin-4(3H)-one]
Percentage of increase (FL-SMN mRNA standardized against GAPDH, DMSO control set as 100%): * (equal to or higher than 100% but lower than 120%)

CCc1cn2cc(-c3ccc4nc(C5CCN(C)CC5)[nH]c(=O)c4c3)ccc2n1 [Example 68, 6-(2-ethylimidazo[1,2-a]pyridin-6-yl)-2-(1-methylpiperidin-4-yl)quinazolin-4(3H)-one]
Percentage of increase (FL-SMN mRNA standardized against GAPDH, DMSO control set as 100%): * (equal to or higher than 100% but lower than 120%)

Cc1nc(C)c2cc(-c3nc4ccc(N5CCN(C)CC5)cc4c(=O)[nH]3)nn2c1C [Example 54, 6-(4-methylpiperazin-1 - yl)-2-(4,6,7-trimethylpyrazolo[1,5-a]pyrazin-2-yl)quinazolin-4(3H)-one]
Percentage of increase (FL-SMN mRNA standardized against GAPDH, DMSO control set as 100%): * (equal to or higher than 100% but lower than 120%)

Cc1cn2cc(-c3cc(F)c4nc(C5(F)CCN(C(C)C)CC5)[nH]c(=O)c4c3)cc(F)c2n1 [Example 99, 8-fluoro-2-(4-fluoro-1-isopropylpiperidin-4-yl)-6-(8-fluoro-2-methylimidazo[1,2-a]pyridin-6-yl)quinazolin-4(3H)-one]
Percentage of increase (FL-SMN mRNA standardized against GAPDH, DMSO control set as 100%): **** (equal to or higher than 180%)

CCN1CCC(F)(c2nc3c(C)cc(-c4cc(F)c5nc(C)cn5c4)nc3c(=O)[nH]2)CC1 [Example 100, 2-(1-ethyl-4-fluoropiperidin-4-yl)-6-(8-fluoro-2-methylimidazo[1,2-a]pyridin-6-yl)-8-methylpyrido[3,2-d]pyrimidin-4(3H)-one]
Percentage of increase (FL-SMN mRNA standardized against GAPDH, DMSO control set as 100%): **** (equal to or higher than 180%)

Cc1cn2nc(-c3nc4ccc(N5CCN(CC6CC6)CC5)cc4c(=O)[nH]3)cc2c(C)n1 [Example 120, 6-[4-(cyclopropyImethyl)piperazin-1-yl]-2-(4,6-dimethylpyrazolo[1,5-a]pyrazin-2-yl)quinazolin-4(3H)-one bistrifluoroacetate]
Percentage of increase (FL-SMN mRNA standardized against GAPDH, DMSO control set as 100%): **** (equal to or higher than 180%)

Cc1cn2cc(-c3cc(C)c4nc(C5(F)CCN(C6CC6)CC5)[nH]c(=O)c4c3)cnc2n1 [Example 103, 2-(1-cyclopropyl-4-fluoropiperidin-4-yl)-6-(2-methylimidazo[1,2-a]pyrimidin-6-yl)-8-methylquinazolin-4(3H4)-one]
Percentage of increase (FL-SMN mRNA standardized against GAPDH, DMSO control set as 100%): ** (equal to or higher than 120% but lower than 150%)

Cc1cn2cc(-c3ccc4nc(C5CCN(C)CC5)[nH]c(=O)c4c3)cc(F)c2n1 [Example 10, 6-(8-Fluoro-2-methylimidazo[1,2-α]pyridin-6-yl)-2-(1-methylpiperidin-4-yl)quinazolin-4(3H)-one]
Percentage of increase (FL-SMN mRNA standardized against GAPDH, DMSO control set as 100%): **** (equal to or higher than 180%)

Cc1cn2cc(-c3ccc4c(=O)n(C5CCN(C)CC5)cnc4c3)ccc2n1 [Example 26, 7-(2-methylimidazo[1,2-a]pyridine-6-yl)-3-(1-methylpiperidin-4-yl) kinazoline-4 (3H)-one]
Percentage of increase (FL-SMN mRNA standardized against GAPDH, DMSO control set as 100%): **** (equal to or higher than 180%)

Cc1cn2nc(-c3nc4cc(F)c(C5CCN(C)CC5)cc4c(=O)[nH]3)cc2c(C)n1 [Example 1, 2-(4,6-Dimethylpyrazolo[1,5-a]pyrazin-2-yl)-7-fluoro-6-(1-methylpiperidin-4-yl)quinazolin-4(3H)-one]
Percentage of increase (FL-SMN mRNA standardized against GAPDH, DMSO control set as 100%): **** (equal to or higher than 180%)

Cc1cn2nc(-c3nc4ccc(N5CCN(C6CC6)CC5)cc4c(=O)[nH]3)cc2cn1 [Example 116, 6-(4-cyclopropylpiperazin-1-yl)-2-(6-methylpyrazolo[1,5-a]pyrazin-2-yl)quinazolin-4(3H)-one]
Percentage of increase (FL-SMN mRNA standardized against GAPDH, DMSO control set as 100%): **** (equal to or higher than 180%)
